According to US8163709B2, “TAK1-D mediated induction of cell death in human cancer cells by specific sequence short double-stranded RNAS” (Board of Regents of the University of Texas System, priority 2008, dated 2012):
“Also recorded” adds a separate entry of the source.

Assays:
[1] = test system: p38 MAP kinase pathway; experiment: Activation of the p38 MAP kinase pathway in H460 cells (Western blot); format: cell-based, human; conditions: for activation of the p38 MAP kinase pathway (phosphorylation of MKK3/6, p38 MAPK): H460 cells, 20 nM RNA, 2-6 h
Text: Both siRNAs were directed against the mRNA of the same gene TLK1.

[2] = test system: TLK1; experiment: TLK1 post-transcriptional silencing in HeLa cells (Western blot); format: cell-based, human; conditions: 48 h after transfection
Experimental: In order to test whether dsRNA molecules show the same cellular uptake and stability the efficiency of these molecules to post-transcriptionally silence the expression of TLK1 was determined as si6 as well as si5 siRNA are directed against the mRNA of this protein. […] As a loading control the unchanged expression levels of TAK1-A/B and 3-tubulin are shown in the two lower panels.

[3] = test system: p38; experiment: p38 activation in mouse peritoneal macrophages; format: cell-based; conditions: 4 h
Experimental: It has been reported (Dempsey et al., 2000) that the splicing variant D of TAK1 could not be detected in many cell lines despite its expression in the parental tissue, most probably due to downregulation of the transcript during in vitro culture. Therefore, the inventors used macrophages 24 h after obtaining them from athymic NCR-NU/NU female mice by peritoneal lavage.

[4] = test system: HCC2279 cells; experiment: Crystal Violet staining of HCC2279 cells; format: cell-based, human; conditions: 48 h
Experimental: To test whether the dsRNA mediated activation of the stress-activated protein kinase cascade also leads to cell death in HCC2279 cells, the cells were plated in a 12 well multi-well plated, treated with siRNA si5 or as a control with siRNA si6 and stained with Crystal Violet 48 h later. […] The data presented as well as the widespread expression of Tak1-D in tissues like lung, brain, liver, and prostate (Dempsey et al., 2000) makes targeted activation of TAK1-D by specific dsRNA an interesting treatment opportunity for these types of cancer.

[5] = test system: H460 cells; experiment: Protein synthesis by [35S] methionine incorporation in H460 cells; format: cell-based, human; conditions: for protein synthesis by [35S] methionine incorporation: 4 h
Experimental: On the next day cells were incubated with the dsRNAs for the given amount of time. Ten minutes prior to labeling the cell culture medium was replaced with cystein/methionine free RPMI. Thereafter, cells were incubated for 15 minutes in cystein/methionine free RPMI containing 40 μC/ml [^35S] methionine (Perkin Elmer, Waltham, Mass., USA).
In order to measure the incorporated radionuclide, cells were washed 5 times with 5% TCA, once with 70% ethanol and the proteins were solubilized in SDS-PAGE sample buffer. After addition of the samples to a liquid scintillation cocktail, [^35S] activity was determined in a LS6500 scintillation counter (Beckmann).
For SDS-PAGE cells were washed 3 times with PBS and proteins were solubilized by heating in non reducing sample buffer. After determination of the protein concentration (D protein assay, Bio-Rad, Hercules, Calif., USA) samples were reduced by the addition of DTT to a final concentration of 100 mM and separated in a 4-12% Bis-Tris gradient gel (NuPAGE, Invitrogen). The gel was dried after Coomassie blue staining and autoradiography was performed using a phosphoimager (Typhoon 9410, Amerham).

[6] = test system: H460 xenograft tumors; experiment: H460 xenograft tumor growth after intratumoral injection; format: in vivo
Experimental: In order to test whether the proposed treatment approach for NSCLC using dsRNA-mediated activation of TAK1-D is feasible in vivo H460 xenograft tumors grown in athymic NCr nu/nu mice were treated with by intratumoral injection of a liposomal dsRNA preparation. About 10 days after subcutaneous injection of […] H460 cells into the left hind leg of the animals tumors had reached a volume of about 300 μl and were injected with 50 μl of liposomal control RNA or active RNA si5. Liposomes consisting of DOTAP and Cholesterol (1:1) were prepared by sonication and extrusion. RNA was bound to the polycation protamine and liposome/polycation/RNA nanoparticles were prepared by mixing the protamine RNA complex with the liposomes. Finally 4 μg of RNA were injected in a volume of 50 μl on day 0 and 1. […].

[7] = target: T1, TAK1-D (Homo sapiens, UniProt O43318); experiment: Binding of radiolabeled siRNAs to immobilized FLAG-TAK1-D; parameters: made in house; conditions: kinase assay buffer conditions, 3 experiments
T1 sequence (O43318 1-491 isoform O43318-4): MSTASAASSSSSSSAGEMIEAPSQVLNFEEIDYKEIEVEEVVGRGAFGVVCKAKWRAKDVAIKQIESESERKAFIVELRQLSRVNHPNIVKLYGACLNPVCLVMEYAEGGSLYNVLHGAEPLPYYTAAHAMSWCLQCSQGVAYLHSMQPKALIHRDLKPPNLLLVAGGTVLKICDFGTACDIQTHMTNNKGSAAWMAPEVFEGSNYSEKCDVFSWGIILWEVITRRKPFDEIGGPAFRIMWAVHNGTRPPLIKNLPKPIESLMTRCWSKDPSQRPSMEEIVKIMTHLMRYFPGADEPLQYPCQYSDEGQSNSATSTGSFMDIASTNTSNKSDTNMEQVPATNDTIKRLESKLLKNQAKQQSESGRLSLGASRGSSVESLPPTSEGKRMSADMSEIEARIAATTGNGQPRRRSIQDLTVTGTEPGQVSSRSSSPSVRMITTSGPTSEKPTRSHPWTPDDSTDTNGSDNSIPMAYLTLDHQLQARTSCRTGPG
Text: FIGS. 2A-C: Effect of dsRNAs on the activity of purified recombinant TAK1-D protein. (FIG. 2A) In vitro kinase assay showing the activation of TAK1-D autophosphorylation by siRNA si5. FLAG-tagged TAK1-D and His-tagged TAB1 were coexpressed in Hela cells and purified by immunoprecipitation with anti FLAG antibody. […] Error bars indicate the standard error of 3 experiments.
To verify if siRNA si5 indeed interacts with TAK1-D directly, the activation of the kinase was studied in vitro using purified proteins. […] To test whether the increased activation of the TAK1-D/TAB1 complex by siRNA si5 is caused by an increased affinity of the RNA molecule to the kinase, binding of radiolabeled siRNAs to immunoprecipitated FLAG tagged TAK1-D was measured. In FIG. 2C the amount of RNA bound to immobilized FLAG-TAK1-D is given.

[8] = test system: H460 cells; experiment: Survival assay of H460 cells, Crystal Violet staining

Substance: si5: 21-mer siRNA against TLK1 mRNA: GGCUUUUGACCUUUAUGAAtt (SEQ ID NO: 2) / ttCCGAAAACUGGAAAUACUU (SEQ ID NO: 3) (sense GGCUUUUGACCUUUAUGAATT; antisense TTCCGAAAACUGGAAAUACUU; chemistry not given here; one strand is listed 3' to 5')
- induced activating phosphorylation of p38 MAPK in cells expressing dominant-negative Tak1-D (K63W) ([1]; H460, adenoviral K63W vs β-galactosidase vector, 20 nM dsRNA 4 h): significantly reduced
- activation of the p38 MAP kinase pathway (phosphorylation of MKK3/6, p38 MAPK) [1]: activation of the p38 MAP kinase pathway; also recorded: able to activate Tak1-D and consecutively p38 MAPK; also recorded: activate the pathway most effectively
- activation of the p38 MAP kinase pathway (phosphorylation of MKK3/6, p38 MAPK) ([1]; listed as Si5): phosphorylation and activation of MKK3/6 as well as MKK4
- activating phosphorylation of p38 MAP kinase in TAK1-D/K63W transfected cells ([1]; H460 stably transfected with K63W vs wt and vector, 4 h): very significant reduction; also recorded: significantly reduced
- expression level of TLK1 [2]: drastically reduce the expression level; also recorded: reduced to almost undetectable levels; also recorded: very significant reduction in the expression of TLK1
- p38 activation by phosphorylation [3]: p38 is activated by phosphorylation
- effect on cells, Crystal Violet ([4]; HCC2279, 5 nM): small effect on cell growth
- effect on cells, Crystal Violet ([4]; HCC2279, 10 to 20 nM): significant cell death
- [35S] methionine incorporation, of its initial value ([5]; H460, after 4 hours, scintillation counting): about 60%
- time until [35S] methionine incorporation significantly reduced ([5]; H460, after transfection): ≤ 1 h
- [35S] methionine incorporation, of initial value ([5]; H460, within first 4 hours, SDS-PAGE autoradiography): about 50%
- protein synthesis by [35S] methionine incorporation ([5]; TAK1-D/K63W transfected H460, 10 nM): could not be observed; also recorded: no change in protein synthesis can be detected
- protein synthesis by [35S] methionine incorporation ([5]; wild-type and vector transfected H460, 10 nM): significant reduction in mRNA translation; also recorded: drops significantly
- normal tissue toxicity (necrosis of skin or tumor vascular system) ([6]; intratumoral liposomal preparation): no sign of normal tissue toxicity
- tumor growth kinetics ([6]; intratumoral, liposome (DOTAP:Cholesterol)/protamine/RNA nanoparticles, 4 μg RNA day 0 and 1): tumor growth delay
- amount of RNA bound to immobilized FLAG-TAK1-D [7]: significantly greater; also recorded: increased binding
- effect on cells, Crystal Violet ([8]; H460, 5 nM, 48 h): slight growth retardation
- effect on cells, Crystal Violet ([8]; H460, 10 nM to 20 nM, 48 h): significant cell kill
- cell death, crystal violet ([8]; H460-wt and H460-vec, 5 or 10 nM, 48 h): massive cell death
- cell death, crystal violet ([8]; TAK1-D/K63W transfected H460, 5 or 10 nM, 48 h): survive the treatment and not

Substance: si6: control 21-mer siRNA against TLK1 mRNA: GGGUGGAAAUGGCUCAAGUtt (SEQ ID NO: 4) / gtCCCACCUUUACCGAGUUCA (SEQ ID NO: 5) (sense GGGUGGAAAUGGCUCAAGUTT; antisense GTCCCACCUUUACCGAGUUCA; chemistry not given here; one strand is listed 3' to 5') [reference compound]
- activation of the p38 MAP kinase pathway (phosphorylation of MKK3/6, p38 MAPK) [1]: had no effect; also recorded: does not occur; also recorded: No activation
- expression level of TLK1 [2]: drastically reduce the expression level; also recorded: reduced to almost undetectable levels; also recorded: very significant reduction in the expression of TLK1
- p38 activation by phosphorylation [3]: not
- toxicity, crystal violet ([4]; HCC2279, concentration range tested): no significant toxicity
- inhibition of translation ([5]; H460, SDS-PAGE autoradiography): No inhibition of translation was observed
- [35S] methionine incorporation ([5]; H460, scintillation counting): remained unchanged
- cell death, crystal violet ([8]; H460, 48 hours after transfection, shRNA experiment): no cell death or growth inhibition could be observed
- toxicity, crystal violet ([8]; H460-wt, H460-vec, H460-K63W, 48 h): no significant toxicity can be observed
